Reference: patent publication US20160130352A1, “RHAMM, A CO-RECEPTOR AND ITS INTERACTIONS WITH OTHER RECEPTORS IN CANCER CELL MOTILITY AND THE IDENTIFICATION OF CANCER PROGNITOR CELL POPULATIONS” (THE REGENTS OF THE UNIVERSITY OF CALIFORNIA, priority 2006, published 2016)
Where two headings read alike, the source gives them in different places.

Key:
MDA-MB-231 cells = assay: Time-lapse cinemicrography random motility; format: cell-based, human
Method: (§1) Random motility analyses were performed to quantify the effect of the blocking Rhamm and CD44 antibodies, HA binding peptide, hyaluronan, and the MEK inhibitor, PD098059 on cell motility. Cells were seeded on T-25 flasks (Costar, Cambridge. Mass.) at 1×10^5 cells/flask. Cells were incubated with anti-Rhamm antibody (30 μg/ml), anti-CD44 antibody (30 μg/ml), a mixture of anti-Rhamm (30 μg/ml) and anti-CD44 antibodies ([…]), HA binding peptide (1 μg/ml) or its scrambled control (1 μg/ml), and/or 50 μM PD098059 for 30 minutes prior to filming. Alternatively, cells were stimulated with 50 μg/L of HA immediately prior to filming. As a control, a mixture of mouse and rabbit IgG (30 μg/ml each), DMSO (for PD098059) or PBS (for HA) were used. Cell locomotion was monitored for a period of 6 hours using a 10× modulation objective (Zeiss, Germany) attached to a Zeiss Axiovert 100 inverted microscope equipped with Hoffman Modulation contrast optical filters (Greenvale, N.Y.) and a 37° C. heated stage. Cell images were captured with a CCD video camera module attached to a Hamamatsu CCD camera controller. Motility was assessed using Northern Exposure 2.9 image analysis software (Empix Imaging, Mississauga, Ontario). Nuclear displacement of 20-30 cells was measured and data were subjected to statistical analysis (see below). Each experiment was repeated at least three times. PD098059 MEK inhibitor was used to test the involvement of the MAP kinase pathway in the motility of these cells. The cells were incubated with the MEK1 inhibitor at 50 μM in complete culture medium 30 minutes before the beginning of motility filming. DMSO alone was used as a control. The results of motility analyses were expressed as means (μm/hour) means±standard deviations, unless otherwise indicated.

MCF7 cells = assay: Time-lapse cinemicrography random motility; format: cell-based, human; conditions: for motility: peptide 1 μg/ml, 30 minutes prior to filming
Method: as §1, with “Alternatively, cells were stimulated with 50 μg/L of HA immediately prior to filming.” left out

[1] = Pharmacokinetic parameters of HA in serum by route of administration (competitive binding ELISA); format: in vivo
Source text: Table 2 below is a summary of the kinetic analysis of HA in serum by different routes of administration.

[2] = Kinetics and tolerability of HA injected I.V. in rats; format: in vivo; conditions: I.V. 1-12 mg/kg
[3] = set-up: species or system mice; conditions: mouse, in vivo, iv
Source text: J Am Chem Soc. 125(25): p. 7494-5, hereby incorporated by reference), MDA-MB-231 breast tumor xenografts which express high levels of Rhamm and CD44 (FIG. 2A) and the liver, whose endothelial cells express the HA endocytic receptor, Hare (See FIG. 13D and Weigel, P. H. and J. H. Yik, 2002. Glycans as endocytosis signals: the cases of the asialoglycoprotein and hyaluronan/chondroitin sulfate receptors. Biochim Biophys Acta. 1572(2-3): p. 341-63).

[4] = set-up: species or system humans; conditions: human, in vivo, iv
[5] = PD098059 50 μM and/or anti-Rhamm antibodies
[6] = serum starved 24-48 hours, 25-50 μg/ml exogenous HA
[7] = peptide 1 μg/ml, 30 minutes prior to filming

COc1cccc(-c2cc(=O)c3ccccc3o2)c1N [PD098059]
basal motility rate (MDA-MB-231 cells; [5]): significantly inhibited
basal motility (MCF7 cells; [5]): no effect

Hyaluronan [HA]
motility (MDA-MB-231 cells; [6]): significantly stimulated motility
Cmax ([1]; Intravenous): 5096.00 µg/mL
Tmax ([1]; Intravenous): 12 h
Cmax ([1]; Oral): 0.15 µg/mL
Tmax ([1]; Oral): 36 h
Cmax ([1]; Subcutaneous): 1454.00 µg/mL
Tmax ([1]; Subcutaneous): 72 h
tolerability [2]: well tolerated
motility rate (MCF7 cells; [6]): no effect
half-life [3]: up to 12 hrs
half-life [4]: up to 12 hrs
T1/2 (HA serum levels) ([4]; 1.5 mg/kg): 12 h

YKQKIKHVVKLK [HA-binding peptide]
motility (MDA-MB-231 cells; [7]): significantly reduced motility
motility (MCF7 cells): no effect

YLKQKKVKKHIV [scrambled control peptide]
motility (MDA-MB-231 cells; [7]): no effect
motility (MCF7 cells): no effect
